# In US20200392116A1, “SUBSTITUTED HETEROCYCLES AS c-MYC TARGETING AGENTS” (NORTHWESTERN UNIVERSITY, priority 2019, published 2020):
# Like-named read-outs stand apart in the source and are kept apart here.
# Tests used:
# [1] = Potency code of Table 2 (assay not stated)
# [2] = In vitro metabolism with mouse liver microsomes; format: in vitro ADME; conditions: % remaining of compound after 60 min treatment with mouse liver microsomes
# Experimental: In vitro metabolism of NUCC-176242 and NUCC-176248 were tested using mouse liver microsomes and a mouse S9 fraction. (See FIG. 9).
# [3] = Plasma protein binding (mouse); format: in vitro ADME
# [4] = tested on: MYC transcriptional activity (c-Myc E-box-luciferase reporter, MycCap cells); test: MYC E-box luciferase reporter assay; format: cell-based; conditions: Mus musculus, Myc-CaP
# Experimental: To test the compounds, we evaluated the in silico hits in a MYC E-Box luciferase reporter assay to measure the effects of these compounds (referred to as Min-1 to Min-32) on MYC transcriptional activity. […] (See FIG. 2).
# MycCap cells stably expressing luciferase with CMV promoter (MycCap-luc) or c-Myc E-box-luciferase reporter (MycCap Ebox-luc) were plated at 10000 cells per well in 96 well white-wall plate. Serial dilutions of 361 were treated next day. At 4 hours of treatment, luminescence signal was determined immediately after adding 150 μg/ml of Luciferin to the well. (See FIG. 12).
# CMV reporter = CMV reporter assay (control reporter beside the Ebox reporter); format: cell-based
# [5] = given as numeric bound, read-out: Ebox reporter: IC50
# [6] = class symbols, read-out: Eboc reporter IC50
# [7] = class symbols, read-out: Ebox reporter: IC50
MLM % at 60 min [2] [%],SMILES,Potency code [1],IC50 (CMV reporter) [µM],"IC50 [4, 7] [µM]",other results
52.7,CCCCCCOc1ccc(-c2cc(C(F)(F)F)nn2C)c(O)c1-c1cncc(C#N)c1 [NUCC-0201207],+++ (10-30 +++),,,
87.4,Oc1cc(OCc2ccc(Cl)cc2)ccc1-c1n[nH]c(C(F)(F)F)c1Oc1ccccc1Cl [NUCC-0196342],++++ (<10 ++++),,,
10.3,CCCCOc1ccc(-c2cc(C(F)(F)F)n(C)n2)c(O)c1-c1cncc(C(F)(F)F)c1 [NUCC-0201209],+ (>40 +),,,
60.3,CCOC(=O)c1cc(-c2ccc(OCc3ccc(Cl)cc3)c(-c3cc(C(F)(F)F)cc(C(F)(F)F)c3)c2O)n[nH]1 [NUCC-0200972],+ (>40 +),,,fraction unbound [3]: < 0.001
80.3,Cn1nc(C(F)(F)F)cc1-c1ccc(OCc2ccc(Cl)cc2)c(-c2cccc(C#N)c2)c1O [NUCC-0198399],++++ (<10 ++++),,,
21.8,Cn1nc(C(F)(F)F)cc1-c1ccc(OCc2ccc(Cl)cc2)cc1C=O [NUCC-0200976],+ (>40 +),,,fraction unbound [3]: < 0.001
,Cn1nc(-c2ccc(N(Cc3ccc(Cl)cc3)C(=O)c3cncc(C#N)c3)cc2O)cc1C(F)(F)F [NUCC-0202722],,> 50,,"IC50 [4, 5]: > 50 µM"
66.6,CCCCCCOc1ccc(-c2cc(C(F)(F)F)n[nH]2)c(O)c1-c1cc(C(F)(F)F)cc(C(F)(F)F)c1 [NUCC-0201196],+++ (10-30 +++),,,
,Cn1nc(C(F)(F)F)cc1-c1ccc(CNc2ccc(Cl)c(C(F)(F)F)c2)cc1O [NUCC-0202980],,,,"IC50 [4, 6]: 10 to 50 µM; IC50 (CMV reporter; class symbols): 10 to 50 µM"
,Cn1nc(C(F)(F)F)cc1-c1cc(Cl)c(OCc2ccc(Cl)cc2)c(-c2ccc(Cl)c(C(F)(F)F)c2)c1O [NUCC-0202648],,> 50,< 5,
,CN(C(=O)c1ccc(-c2cc(C(F)(F)F)nn2C)c(O)c1)c1ccc(Cl)c(C(F)(F)F)c1 [NUCC-0202990],,,,"IC50 [4, 6]: 10 to 50 µM; IC50 (CMV reporter; class symbols): > 50 µM"
,Cc1cc(-c2ccc(OCc3ccc(Cl)cc3)c(-c3ccc(Cl)c(C(F)(F)F)c3)c2O)n(C)n1 [NUCC-0202533],,> 50,10 to 50,
46.4,CCc1c(OCc2ccc(Cl)cc2)ccc(-c2cc(C(F)(F)F)n[nH]2)c1O [NUCC-0200739],+ (>40 +),,,
,Cn1nc(-c2ccc(N(Cc3ccc(Cl)cc3)C(=O)c3ccccc3C(F)(F)F)cc2O)cc1C(F)(F)F [NUCC-0202719],,> 50,,"IC50 [4, 5]: > 50 µM"
,Oc1c(-c2cc(C(F)(F)F)n[nH]2)cc(Cl)c(OCc2ccc(Cl)cc2)c1-c1ccc(Cl)c(C(F)(F)F)c1 [NUCC-0202649],,> 50,< 5,
,CN(C)C(=O)c1cc(-c2ccc(OCc3ccc(Cl)cc3)c(-c3ccc(Cl)c(C(F)(F)F)c3)c2O)nn1C [NUCC-0202531],,> 50,,"IC50 [4, 5]: > 50 µM"
,Cn1nc(-c2ccc(N(Cc3ccc(Cl)cc3)C(=O)c3ccccc3F)cc2O)cc1C(F)(F)F [NUCC-0202716],,> 50,,"IC50 [4, 5]: > 50 µM"
,CN(C(=O)c1ccc(-c2cc(C(F)(F)F)n(C)n2)c(O)c1)c1ccc(Cl)c(C(F)(F)F)c1 [NUCC-0202991],,,,"IC50 [4, 6]: 10 to 50 µM; IC50 (CMV reporter; class symbols): > 50 µM"
,Cn1nc(-c2ccc(CNc3ccc(Cl)cc3)c(-c3ccc(Cl)c(C(F)(F)F)c3)c2O)cc1C(F)(F)F [NUCC-0202417],,> 50,,"IC50 [4, 5]: > 50 µM"
,CN(C)C(=O)c1cc(-c2ccc(OCc3ccc(Cl)cc3)c(-c3ccc(Cl)c(C(F)(F)F)c3)c2O)n(C)n1 [NUCC-0202527],,> 50,10 to 50,

MLM % at 60 min [2] [%],SMILES,Potency code [1],IC50 (CMV reporter) [µM],"IC50 [4, 7] [µM]",other results
,C=C(C)c1cc(-c2ccc(OCc3ccc(Cl)cc3)c(-c3ccc(C)c(C)c3)c2C)nn1C [NUCC-0202528],,28,10 to 50,
75.8,Oc1c(-c2cc(C(F)(F)F)[nH]n2)ccc(Oc2ccc(Cl)cc2)c1-c1cc(C(F)(F)F)cc(C(F)(F)F)c1 [NUCC-0201223],++++ (<10 ++++),,,
,COc1ccc(C(=O)N(Cc2ccc(Cl)cc2)c2ccc(-c3cc(C(F)(F)F)n(C)n3)c(O)c2)cc1 [NUCC-0202718],,> 50,,"IC50 [4, 5]: > 50 µM"
,CN(C(=O)c1ccc(-c2cc(C(F)(F)F)n[nH]2)c(O)c1)c1ccc(Cl)c(C(F)(F)F)c1 [NUCC-0202989],,,,"IC50 [4, 6]: 10 to 50 µM; IC50 (CMV reporter; class symbols): 10 to 50 µM"
30.5,Oc1c(-c2cc(C(F)(F)F)n[nH]2)ccc(OCCN2CCCC2)c1-c1cc(C(F)(F)F)cc(C(F)(F)F)c1 [NUCC-0201032],+ (>40 +),,,fraction unbound [3]: < 0.001
,Cn1nc(-c2ccc(OCc3ccc(Cl)cc3)cc2O)c(Oc2ccc(Cl)c(F)c2)c1C(F)(F)F [NUCC-0202643],,> 50,< 5,
,Oc1cc(-c2ccc(OCc3ccc(Cl)cc3)c(-c3ccc(Cl)c(C(F)(F)F)c3)c2O)[nH]n1 [NUCC-0202535],,> 50,10 to 50,
,COCCOc1ccc(-c2cc(C(F)(F)F)n(C)n2)c(O)c1-c1ccc(Cl)c(C(F)(F)F)c1 [NUCC-0202426],,> 50,,"IC50 [4, 5]: > 50 µM"
,Cn1nc(-c2ccc(NC(=O)c3ccc(Cl)c(C(F)(F)F)c3)cc2O)cc1C(F)(F)F [NUCC-0202691],,> 50,,"IC50 [4, 5]: > 50 µM"
88.6,Oc1c(-c2cc(C(F)(F)F)[nH]n2)ccc(OCc2ccc(Cl)cc2)c1-c1ccccc1Cl [NUCC-0196363],++++ (<10 ++++),,,
,Oc1c(-c2cc(C(F)(F)F)n[nH]2)ccc(NCc2ccc(Cl)cc2)c1-c1ccc(Cl)c(C(F)(F)F)c1 [NUCC-0202433],,> 50,5 to 10,
,Cn1nc(C(F)(F)F)cc1-c1c(Cl)cc(OCc2ccc(Cl)cc2)c(-c2ccc(Cl)c(C(F)(F)F)c2)c1O [NUCC-0202987],,,,"IC50 [4, 6]: < 5 µM; IC50 (CMV reporter; class symbols): > 50 µM"
,Cn1nc(-c2ccc(N(Cc3ccc(Cl)cc3)C(=O)c3ccc(Cl)cc3)cc2O)cc1C(F)(F)F [NUCC-0202694],,> 50,,"IC50 [4, 5]: > 50 µM"
74,COc1cccc(-c2c(-c3ccc(OCc4ccc(Cl)cc4)cc3O)n[nH]c2C(F)(F)F)c1 [NUCC-0198309],++++ (<10 ++++),,,
72.9,Cn1nc(C(F)(F)F)cc1-c1ccc(OCc2ccc(Cl)cc2)c(-c2cc(C(F)(F)F)cc(C(F)(F)F)c2)c1O [NUCC-0196361],++++ (<10 ++++),,,fraction unbound [3]: < 0.001
,CNC(=O)c1cc(-c2ccc(OCc3ccc(Cl)cc3)c(-c3ccc(Cl)c(C(F)(F)F)c3)c2O)[nH]n1 [NUCC-0202522],,43,10 to 50,
,Oc1c(-c2cc(C(F)(F)F)n[nH]2)ccc(OCc2ccc(Cl)cc2)c1Oc1ccc(F)cn1 [NUCC-0202435],,> 50,10 to 50,
,Cn1nc(-c2ccc(N(Cc3ccc(Cl)cc3)C(=O)c3cncc(C(F)(F)F)c3)cc2O)cc1C(F)(F)F [NUCC-0202689],,> 50,,"IC50 [4, 5]: > 50 µM"
,Cn1nc(C(F)(F)F)cc1-c1ccc(N(Cc2ccc(Cl)cc2)C(=O)c2cccc(Cl)c2)cc1O [NUCC-0202704],,> 50,< 5,
,O=c1cc(C(F)(F)F)oc2cc(NCc3ccc(Cl)cc3)ccc12 [NUCC-0202436],,> 50,10 to 50,
